Key:
HIV-1 = experiment: Anti-viral activity: syncytium formation (Sup T1) or reverse transcriptase assay (H9); format: cell-based; details: Human immunodeficiency virus 1; concentration that inhibits the proliferation of HIV by 50%; H9 and Sup T1 cell lines, 200 TCID50 HIV-1; cell line not given; read-out: IC
Protocol: The anti-viral activity of the compounds of the present invention was determined by measuring the concentration of the compounds that inhibits the proliferation of HIV by 50%(IC50) through a survey for syncytium formation or reverse transcriptase assay.
1 x 10^5 cells of each of H9(ATCC HTB 176) and Sup T1 cell lines were added to the wells of a 24-well microtiter plate and various concentrations of the compounds of the present invention were added thereto. 200 TCID50(200-fold of 50% tissue culture infection dose) of HIV-1 inoculum and rpmi-1640 medium(Sigma Chemical Co., U.S.A) were added successively to the wells and the plate was incubated at 37°C. In case of Sup T1, the number of syncytium formed was investigated after 3 to 9 days. IC50 of each compound was determined by measuring the concentration of inhibitor that can reduce the number of syncytium by 50% compared with those formed in the same condition without the inhibitor.
In case of H9, three-quarters(3/4) of the culture medium in volume was refreshed every 3 days; and after 9 days, 6ml of the culture fluid was taken and 2.5ml of 30% polyethyleneglycol(PEG, M.W. 6000-8000) and 0.4M NaCl were added thereto. The resulting solution was allowed to stand at 0°C overnight to precipitate virus particles. The solution was centrifuged at 2000rpm for 45 minutes, the supernatant was discarded therefrom and the precipitate was diluted with 20µl of a reverse transcriptase suspension buffer(50mM tris-HCl, pH 7.5, 1mM dithiothreitol, 20% glycerol, 0.25M KCl and 0.25% Triton X-100). The resulting suspension was stored in an Effendorf tube at -70°C until used. A procedure of freezing said virus suspension for 2 minutes in dry ice and thawing same at 37°C for 2 minutes was repeated three times and the resulting suspension was centrifuged at 4°C. The resulting supernatant was used in carrying out the reverse transcriptase assay.
10µl of the said viral suspension was added to a solution of: 10µl of buffer solution(250mM tris-HCl, pH 7.5, 37.5mM MgCl2, 0.25% triton X-100), 1.2µl of 200mM dithiothreitol, 5µl of 100µM oligo(dT)-poly(A)(Boeringer Manheim, 12-18 oligomer), 1µl(1µCi) of ^3H-TTP(Thymidinetri-phosphate) and 23.6µl of water; and the resulting mixture was placed at 37°C. After 1 hour, the mixture was poured onto a WHATMAN DEB1 filter and the filter was washed three times with 5ml of 2 x SSC buffer solution(17.53g of sodium chloride, 8.82g of sodium citrate, pH 7.0, 1 liter of water) for about 10 minutes each time and twice with 95% methanol for 10 seconds. The filter was put onto aluminium foil and dried with an infrared lamp. The amount of radioactivity was counted using a liquid scintillation counter.

in vitro = details: human, h9 or sup t1 cells
Protocol: To determine the cytotoxicity of the compounds of the present invention, 0.1µM to 100µM of the novel compounds were added to H9 cell or Sup T1 cell and the mixture was cultured on a rpmi-1640 medium at 37°C. The medium was refreshed every 3 days and the extent of cell proliferation was observed using Hemacytometer according to the trypan blue dye exclusion technique which is well known in the art. CT50(i.e., concentration that causes death of cells by 50%) was determined. As control compounds, azidothymidine(AZT, Burrows-Wellcome Co.) and Ro-31 8959(Hoffmann-La Roche AG) were used. […]

HIV-1 protease = target: T1, HIV-1 protease (Human immunodeficiency virus type 1 group M subtype B, UniProt P04585); experiment: Assay for inhibitory effect on HIV protease (irreversible inhibition kinetics, HPLC readout); format: biochemical; details: second order rate constant; 2.6nM HIV-1 protease, pH 5.5; KINSIM/FITSIM fit; exact values hard to calculate above 10^9
T1 construct: addition of 2.6nM of HIV-1 protease
Protocol: The inhibitory effect on HIV protease of the compounds of the present invention was determined by the following method.
To a buffer solution comprising 50mM sodium acetate, pH 5.5, 1mM dithiothreitol (DTT), 1mM ethylenediaminetetra-acetate (EDTA), 0.75M ammonium sulfate, 0.2M sodium chloride and 0.1% NP40(NONIGET P-40; Sigma Chemical Co., U.S.A.), were added various concentrations of a compound selected from the compound obtained in Examples 1 to 9 to prepare a preincubation solution. Inhibition reaction was started with the addition of 2.6nM of HIV-1 protease to the preincubation solution. Each 10µl of the reaction solution was taken at a given time interval and added to 80µl of assay solution containing 100µM of reaction substrate in the same buffer solution as the above to assay for the residual enzyme activity. In this context, an oligopeptide(KM=20µM) consisting of 11 amino acids, i.e., Ser-Ile-Ala-Glu-(p-NO2)-Phe-Leu-Val-Arg-Ala-Lys-His, was used as a reaction substrate, which oligopeptide was to be cleaved in two by the breakage of amide bond between (P-NO2)-Phe and Leu upon the attack of HIV protease. The reaction rate was determined by subjecting the substrate before the reaction and the product after the reaction to HPLC separation and then measuring the relative amount of the product, using the strong absorbance of (p-NO2)-Phe at 280nm. The amounts of reduction in enzyme activity according to the elasped time were measured and the natural logarithmic values(ln) of the measured amounts were plotted against time to obtain a linear graph and kobs was calculated from the slope of the linear graph.
The inhibition constant was calculated according to the following equation: (1)/(kobs)=(1)/(kina)+(KI)/(kina)(1)/([I]) [formula] wherein: kobs is a rate constant indicating the rate of reduction in enzyme activity according to the elapsed time under the presence of a given concentration of inhibitor, kina is a rate constant indicating the rate of chemical reaction forming covalent bond between an enzyme and an inhibitor in Michaelis-Menten complex, KI is an inhibition constant indicating the dissociation rate of Michaelis-Menten complex into an enzyme and an inhibitor, and [I] means the inhibitor concentration.
The above equation is applicable to an experiment carried out under the condition in which the concentration of inhibitor is fear higher than that of enzyme (Steady State Kinetic). […] The inhibition constants KI and kina and second order rate constant kina/KI were obtained by inputting the value of [E]/([E]+[EI]+[EI']) [formula] into KINSIM/FITSIM program.

Compound | IC50 (HIV-1) | CC50 (in vitro) | kinact/KI (HIV-1 protease)
Cc1cn([C@H]2C[C@H](N=[N+]=[N-])[C@@H](CO)O2)c(=O)[nH]c1=O [AZT, azidothymidine, reference compound] | 12 nM | > 10000 nM | –
CC(C)(C)NS(=O)(=O)CC[C@@H]1O[C@@H]1[C@H](Cc1ccccc1)NC(=O)[C@@H](NC(=O)OCc1ccccc1)C(C)(C)S(C)(=O)=O [Ex. 1, N-t-butyl-5S-[N-benzyloxycarbonyl-β-methanesulfonyl-L-valinyl]amino-(4R,3S)-epoxy-6-phenylhexanesulfonamide] | 25 nM | > 10000 nM | 1.67e+07 to 1.67e+08 M⁻¹ s⁻¹
CC(C)(C)NS(=O)(=O)CC[C@@H]1O[C@@H]1[C@H](Cc1ccccc1)NC(=O)[C@@H](NC(=O)c1ccc2ccccc2n1)C(C)(C)S(C)(=O)=O [Ex. 2, N-t-butyl-5S-[N-(2-quinolinecarbonyl)-β-methanesulfonyl-L-valinyl]amino-(4R,3S)-epoxy-6-phenylhexanesulfonamide] | 30 nM | > 10000 nM | 1.67e+07 to 1.67e+08 M⁻¹ s⁻¹
CC(C)(C)NS(=O)(=O)CC[C@@H]1O[C@@H]1[C@H](Cc1ccccc1)NC(=O)[C@H](CC(N)=O)NC(=O)c1ccc2ccccc2n1 [Ex. 3] | 10 nM | > 10000 nM | 1.67e+07 to 1.67e+08 M⁻¹ s⁻¹
CN(C(C)(C)C)S(=O)(=O)CC[C@@H]1O[C@@H]1[C@H](Cc1ccccc1)NC(=O)[C@@H](NC(=O)OCc1ccccc1)C(C)(C)S(C)(=O)=O [Ex. 4, N-t-butyl-N-methyl-5S-[N-benzyloxycarbonyl-β-methanesulfonyl-L-valinyl]amino-(4R,3S)-epoxy-6-phenylhexanesulfonamide] | 1 nM | > 10000 nM | 1.67e+07 to 1.67e+08 M⁻¹ s⁻¹
CN(C(C)(C)C)S(=O)(=O)CC[C@@H]1O[C@@H]1[C@H](Cc1ccccc1)NC(=O)[C@@H](NC(=O)COc1cccc2cnccc12)C(C)(C)S(C)(=O)=O [Ex. 5, N-t-butyl-N-methyl-5S-(N-(5-isoquinolyloxymethylcarbonyl)-β-methanesulfonyl-L-valinyl]amino-(4R,3S)-epoxy-6-phenylhexanesulfonamide] | 5 nM | > 10000 nM | 1.67e+07 to 1.67e+08 M⁻¹ s⁻¹
CCN(c1ccccc1)S(=O)(=O)CC[C@@H]1O[C@@H]1[C@H](Cc1ccccc1)NC(=O)[C@@H](NC(=O)c1ccc2ccccc2n1)C(C)(C)S(C)(=O)=O [Ex. 6, N-ethyl-N-phenyl-5S-[N-(2-quinolinecarbonyl)-β-methanesulfonyl-L-valinyl]amino-(4R,3S)-epoxy-6-phenylhexanesulfonamide] | 5 nM | > 10000 nM | 1.67e+07 to 1.67e+08 M⁻¹ s⁻¹
CCN(c1ccccc1)S(=O)(=O)CC[C@@H]1O[C@@H]1[C@H](Cc1ccccc1)NC(=O)[C@H](CC(N)=O)NC(=O)c1ccc2ccccc2n1 [Ex. 7, N-ethyl-N-phenyl-5S-[N-(2-quinolinecarbonyl)-L-asparaginyl]amino-(4R,3S)-epoxy-6-phenylhexanesulfonaimide] | 20 nM | > 10000 nM | 1.67e+07 to 1.67e+08 M⁻¹ s⁻¹
CCN(C(C)C)S(=O)(=O)CC[C@@H]1O[C@@H]1[C@H](Cc1ccccc1)NC(=O)[C@@H](NC(=O)c1ccc2ccccc2n1)C(C)(C)S(C)(=O)=O [Ex. 8, N-ethyl-N-isopropyl-5S-[N-(2-quinolinecarbonyl)-β-methanesulfonyl-L-valinyl]amino-(4R,3S)-epoxy-6-phenylhexanesulfonamide] | 10 nM | > 10000 nM | 1.67e+07 to 1.67e+08 M⁻¹ s⁻¹
CC(C)C(NS(=O)(=O)CC[C@@H]1O[C@@H]1[C@H](Cc1ccccc1)NC(=O)[C@@H](NC(=O)OCc1ccccc1)C(C)(C)S(C)(=O)=O)C(C)C [Ex. 9, N-(2,4-dimethyl-3-pentyl)-5S-[N-(2-benzyloxycarbonyl)-β-methanesulfonyl-L-valinyl]amino-(4R,3S)-epoxy-6-phenylhexanesulfonamide] | 10 nM | > 10000 nM | 1.67e+07 to 1.67e+08 M⁻¹ s⁻¹
